From publication PMC7468596, “Potent In Vitro α-Glucosidase and β-Secretase Inhibition of Amyrin-Type Triterpenoid Isolated from Datura metel Linnaeus (Angel's Trumpet) Fruits” (BioMed Research International, 2020)

Experiments:
[1] = target: T1, α-glucosidase (rat intestinal); assay: p-nitrophenyl-α-D-glucopyranoside hydrolysis, […] nm, crude intestinal enzyme; assay type: biochemical
T1 construct: supernatant of rat intestinal acetone powder

β-secretase (BACE1) = β-secretase (BACE1) (Homo sapiens, UniProt P56817); assay: BACE1 FRET enzyme assay, pH […]; assay type: biochemical
Chain of β-secretase (BACE1) (P56817 46-457): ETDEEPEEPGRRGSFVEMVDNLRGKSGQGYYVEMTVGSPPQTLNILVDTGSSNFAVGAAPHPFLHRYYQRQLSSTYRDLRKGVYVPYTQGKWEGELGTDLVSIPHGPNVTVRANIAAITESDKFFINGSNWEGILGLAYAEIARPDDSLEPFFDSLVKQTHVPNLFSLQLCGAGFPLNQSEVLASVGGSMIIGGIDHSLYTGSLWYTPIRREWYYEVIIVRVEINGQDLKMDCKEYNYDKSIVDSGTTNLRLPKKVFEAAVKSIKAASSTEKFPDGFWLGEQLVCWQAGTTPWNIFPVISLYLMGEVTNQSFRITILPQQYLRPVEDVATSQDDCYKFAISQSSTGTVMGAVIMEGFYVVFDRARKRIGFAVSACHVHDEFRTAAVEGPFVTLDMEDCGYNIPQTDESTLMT

IC50 [1]: 830.4 ± 2.01 µM
IC50 (β-secretase (BACE1)): 260.7 ± 1.87 µM
SMILES: CC1(C)CC[C@]2(C)CC[C@]3(C)C(=CC[C@@H]4[C@@]5(C)CCC(=O)C(C)(C)[C@@H]5[C@H](O)C[C@]43C)[C@@H]2C1 [compound 1, daturaolone]
